The results in this text go back to patent publication US20030096893A1, “Oxidatively drying coating composition” (priority 2001, published 2003).

A short description of this series: Solubility of the ligand in Shellsol D40 at 23° C. It is filed as physicochemical. The protocol:
This condensation product was added to Shellsole® D40 at a temperature of 23° C. The solubility of the ligand was less than 10 g/l.
Comparative Example A was repeated using 2-hydroxy 5-methyl benzaldehyde instead of salicyl aldehyde. Again, the resulting ligand was added to Shellsol® D40 at a temperature of 23° C. The solubilty of the ligand was less than 10 g/l.
Comparative Example A was repeated using 2-hydroxy 3,5-di tert. butyl benzaldehyde instead of salicyl aldehyde. Obtained was a ligand according to formula I having two tert. butyl substitutions on the two aromatic groups A1 and A2. The solubility in Shellsol® D40 at a temperature of 23° C. was higher than 20 g/l.
Comparative Example A was repeated again, now using 2-hydroxy 5-dodecyl benzaldehyde instead of salicyl aldehyde. Obtained was a ligand according to formula I having a dodecyl substitution on the two aromatic groups A1 and A2. The solubility in Shellsol® D40 at a temperature of 23° C. was higher than 100 g/l.

The mark [1] stands for this setting: Shellsol D40 (aromate-free organic solvent), 23° C.

Molecules are shown by their SMILES. Read-outs that look alike come from different tables or passages of the source.

`Cc1ccc(O)c(C=NC2CCCCC2N=Cc2cc(C)ccc2O)c1` (stereo not shown) [B]: the “solubility of the ligand in Shellsol D40” value under setting [1] is given as “less than 10 g/l”.
Take `Oc1ccccc1C=NC1CCCCC1N=Cc1ccccc1O` (stereo not shown) [Comparative Example A, N,N′-bis(salicylidene) cyclohexylene diamine]: the “solubility of the ligand in Shellsol D40” value was “less than 10 g/l”.
As for `CC(C)(C)c1cc(C=NC2CCCCC2N=Cc2cc(C(C)(C)C)cc(C(C)(C)C)c2O)c(O)c(C(C)(C)C)c1` (stereo not shown) [Example 1], the “solubility of the ligand in Shellsol D40” value under setting [1] is listed as “higher than 20 g/l”.
On the same count and under the same terms, the entry for `CCCCCCCCCCCCc1ccc(O)c(C=NC2CCCCC2N=Cc2cc(CCCCCCCCCCCC)ccc2O)c1` (stereo not shown) [Example 2] is “higher than 100 g/l”.
